One compound from patent US8143254B2, “Methods for modulating ion channels” (Cornell Research Foundation, Inc., priority 2005, dated 2012) can be followed below.

What is called IC50 is the concentration that gives 50% inhibition. High values mean weaker potency, low ones greater potency.

One assay deals with T1, Kv2.1 Y380T (Rattus norvegicus, UniProt P15387, Y380T/Y384T).
T1 construct: expressed in transfected cells; host or cells: Xenopus laevis oocytes (cRNA from pGA1)
Nature of the assay: TEVC of oocytes expressing Y380T mutant Kv2.1. Particulars: Y380T mutation in Kv2.1. The format is cell-based. The text has this:
Kv2.1 mutants were constructed using the QuickChange Multi Site-Directed Mutagenesis Kit (Stratagene, La Jolla, Calif.). Mutant Kv2.1 genes (in the pGA1 oocyte expression vector for oocyte expression) were sequenced in their entirety to confirm appropriate mutations and check for inadvertent mutations, and then subcloned into a wild-type pGA1 backbone. For oocyte expression, Kv3.4 was in pBF1, Kv4.2 was in pRAT. cRNA transcripts were produced from SacII-linearized (Kv2.1), Mlullinearized (Kv3.4) and Not1-linearized (Kv4.2) DNA templates using the T3 (Kv2.1), SP6 (Kv3.4) and T7 (Kv4.2) mMessage mMachine kits (Ambion, Austin, Tex.). cRNA was quantified by spectrophotometry and its size integrity verified by gel electophoresis. Defolliculated stage V and VI Xenopus laevis oocytes (purchased from Nasco, Grand Island, N.Y.) were injected with 5 ng of cRNA encoding Kv2.1, Kv3.4 or Kv4.2. […]
Data analysis: Current-voltage relationships were obtained by measuring peak current during depolarizing pulses. Inhibition constants for DABCO blockers were calculated after generating a dose response curve by fitting with a logistic dose-response function y=A2+[A1−A2/1+(x/x0)^p], where A1 is the maximum response plateau, A2 is the minimum response plateau, x is drug concentrator, x0 is the IC50, and p the Hill slope. […]

The target of another assay is T2, Kv2.1-K356C (Rattus norvegicus, UniProt P15387, K360C).
T2 construct: expressed in transfected cells; host or cells: Xenopus laevis oocytes (cRNA from pGA1)
T2 sequence (P15387 1-857 K360C): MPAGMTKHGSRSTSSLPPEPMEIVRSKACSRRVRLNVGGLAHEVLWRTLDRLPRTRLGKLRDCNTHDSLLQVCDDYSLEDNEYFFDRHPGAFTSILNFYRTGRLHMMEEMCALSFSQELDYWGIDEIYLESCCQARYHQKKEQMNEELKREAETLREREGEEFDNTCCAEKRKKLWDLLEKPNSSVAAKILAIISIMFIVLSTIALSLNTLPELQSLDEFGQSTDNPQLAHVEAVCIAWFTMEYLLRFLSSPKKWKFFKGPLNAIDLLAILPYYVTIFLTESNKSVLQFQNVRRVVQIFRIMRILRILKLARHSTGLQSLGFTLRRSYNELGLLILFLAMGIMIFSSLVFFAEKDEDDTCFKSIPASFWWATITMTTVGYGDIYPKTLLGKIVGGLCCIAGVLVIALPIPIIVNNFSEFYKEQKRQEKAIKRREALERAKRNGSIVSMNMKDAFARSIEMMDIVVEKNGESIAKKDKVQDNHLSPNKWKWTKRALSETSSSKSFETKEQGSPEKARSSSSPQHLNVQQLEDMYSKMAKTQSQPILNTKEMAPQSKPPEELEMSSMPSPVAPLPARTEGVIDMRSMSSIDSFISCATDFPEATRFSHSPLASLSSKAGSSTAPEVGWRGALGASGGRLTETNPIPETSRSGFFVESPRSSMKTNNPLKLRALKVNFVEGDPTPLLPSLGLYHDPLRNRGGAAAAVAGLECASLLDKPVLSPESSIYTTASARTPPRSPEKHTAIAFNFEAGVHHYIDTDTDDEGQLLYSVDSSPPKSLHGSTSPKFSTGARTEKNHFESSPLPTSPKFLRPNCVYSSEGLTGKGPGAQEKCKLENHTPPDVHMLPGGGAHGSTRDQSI
The assay can be described thus: Cysteine protection experiments, K356C variant of Kv2.1 in oocytes. The format is cell-based. The text has this:
Kv2.1 mutants were constructed using the QuickChange Multi Site-Directed Mutagenesis Kit (Stratagene, La Jolla, Calif.). Mutant Kv2.1 genes (in the pGA1 oocyte expression vector for oocyte expression) were sequenced in their entirety to confirm appropriate mutations and check for inadvertent mutations, and then subcloned into a wild-type pGA1 backbone. For oocyte expression, Kv3.4 was in pBF1, Kv4.2 was in pRAT. cRNA transcripts were produced from SacII-linearized (Kv2.1), Mlullinearized (Kv3.4) and Not1-linearized (Kv4.2) DNA templates using the T3 (Kv2.1), SP6 (Kv3.4) and T7 (Kv4.2) mMessage mMachine kits (Ambion, Austin, Tex.). cRNA was quantified by spectrophotometry and its size integrity verified by gel electophoresis. Defolliculated stage V and VI Xenopus laevis oocytes (purchased from Nasco, Grand Island, N.Y.) were injected with 5 ng of cRNA encoding Kv2.1, Kv3.4 or Kv4.2. Chinese Hamster Ovary (CHO) cells were transfected with 0.25 μg Kv2.1 cDNA, 2 μg blank plasmid and 2 μg Green fluorescent Protein in pBOB using Supetfect transfection reagent (Qiagen) 24 hours before whole-cell voltage clamp studies.
Whole-cell two-electrode voltage-clamp (TEVC) recordings were performed on X laevis oocytes expressing cloned Kv2.1, Kv3.4 or Kv4.2 using a Warner OC-725C amplifier and pClamp9 (Axon Instruments, Foster City, Calif.) software. Oocytes were bathed in a small-volume Warner oocyte bath and viewed with a Fisher dissection microscope. Bath solution for whole-cell oocyte recordings was (in mM): 96 NaCl, 4 KCl, 0.7 MgCl2, 1 CaCl2, 10 HEPES (pH 7.4); whole-cell oocyte TEVC pipettes were of 0.2-2 M resistance when filled with 3 M KCl. Experiments were performed 24-48 hours after cRNA injection. For assessment of current-voltage relationships in the absence or presence of dabco derivatives, oocytes were held at −80 mV, stepped for 2 seconds at voltages between −80 mV and +60 mV in 20 mV steps (Kv2.1) or between −80 and +50 mV in 10 mV steps (Kv3.4), then held for 500 ms at −40 mV before returning to the holding potential. For assessment of block during wash-in of dabco derivatives at a single voltage, oocytes were held at −80 mV, and repetitively stepped to 0 mV for 2 s with an interpulse interval of 10 s or 60 s as indicated. A range of concentrations of dabco or dabco derivatives were washed in via the bath solution during repetitive single-voltage pulses (after an initial period of 5 pulses with control solution to ensure current stabilization) until equilibrium block was achieved, to establish dose-responses. Inhibited currents are compared to the current at the end of 5-pulse control period, thus some bar graphs show ‘control’ current values slightly less than 1, and with an error bar, to show how much currents deviate in the absence of drug. Washout was performed after the highest concentration of blocker was washed in. In cases where washout was achieved, only those recordings in which current returned to within 10% of original current level were used for construction of dose-response curves. For cysteine protection experiments using the K356C variant of Kv2.1, a dabco derivative (JC638.2a) was washed in to equilibrium block, followed by wash-in of a solution containing both JC638.2a and MTSET until no further changes in current were seen; following this the solution was washed out with standard bath solution. As controls for this protection analysis, JC638.2a or MTSET were washed in alone until equilibrium block, then washed out.

Setting [1] is: K356C-Kv2.1, JC638.2α plus MTSET.

In the case of `c1cc(C[N+]23CCN(CC2)CC3)ccc1C[N+]12CCN(CC1)CC2` [JC638.2α, α,α′-[bis(4-aza-1-azoniabicyclo[2.2.2]octanyl)]p-xylene], on Kv2.1 Y380T, the 50% inhibitory concentration (IC50) worked out at 185 ± 41 µM and the “slope of dose response curve” value is reported as 1.3. For the same compound, the “current inhibition, administered alone” value at Kv2.1-K356C (K356C mutant) was found to be 62±3%. On Kv2.1-K356C (K356C mutant, administered alone), the “reversibility of block with washout” value was “reversed with washout”. Also, at Kv2.1-K356C (setting [1]), the “current inhibition, co-application with MTSET after pre-application” value is on record as 84±1% and the “reversibility with washout, co-application with MTSET” value was “completely reversible with washout”.
